Data set [1] deals with P. falciparum schizonts. Description: Washout assay, schizont rupture and new ring formation. The following applies: 20 nM ∼44 h, […] with added RBCs. The class given is cell-based. The procedure:
(§1) The schizont cultures lacking added RBCs were supplemented with compound C2, which blocks the discharge of exonemes, the parasite secretory organelles in which PMX and SUB1 are stored before egress. The schizonts without added RBCs were sampled for Western blot analysis, while the schizont cultures containing RBCs were examined by microscopy and flow cytometry after a further 4 h in culture to quantify schizont rupture and new ring formation.
(§2) Synchronous parasite cultures were cultured from ring to schizont stage (∼44 h) in the presence of DMSO alone (0.04% v/v; control) or macrocycle compounds (20 nM final concentration). Schizonts were isolated by Percoll enrichment (still in the presence of the test compound), then either immediately frozen or further incubated in the absence of the drug but in the presence of C2 (1 μM) for 1 h at 37°C in the absence of added RBCs or for 3.5 h in the presence of added RBCs. The schizonts without added RBCs were then frozen too, and all schizont samples were then thawed into CHAPS–urea extraction buffer, subjected to sodium dodecyl sulfate-polyacrylamide gel electrophoresis (SDS-PAGE), and analyzed by Western blot, probing with antibodies against SUB1 or RAP1. For schizonts cultured in the presence of added RBCs, ring formation was assessed in two ways: cultures were examined microscopically by Giemsa stain of thin films and were also fixed with glutaraldehyde and processed for quantification of ring formation by flow cytometry as described above.

Data set [2] is described as follows: Plasma protein binding (rapid equilibrium dialysis). The class given is in vitro ADME. As to conditions: pH 7.4, mouse plasma, 2 h at 37 °C. The procedure:
Plasma protein binding was performed with rapid equilibrium dialysis (RED) device inserts containing a dialysis membrane with a molecular weight cut-off of 8000 Daltons. Inserts were placed in the single-use RED plate without prior preparation.
The test compound at a concentration of 5 μM was added to mouse plasma and dialyzed against phosphate-buffered saline (PBS, pH 7.4) for 2 h at 37 °C. Propranolol hydrochloride was used as a positive control (high PPB), and fluconazole was used as negative control (low PPB). After dialysis, the drug concentration in the buffer and plasma compartments was quantified by liquid chromatography and tandem mass spectrometry (LC-MS/MS) analysis.

For data set [3], the system named is maturation of the PMX substrate SUB1 (p54 to p47). Description: Western blot of SUB1 maturation in treated schizonts. The class given is cell-based, P. falciparum. As to conditions: 20 nM, 44 h. As to the method: This phenotype is characteristic of the inhibition of PMX.
as §2

The subject of data set [4] is maturation of RAP1, substrate of PMIX. Description: Western blot of RAP1 maturation in treated schizonts. The class given is cell-based, P. falciparum. The following applies: 20 nM, 44 h.
Text: Figure 4 Macrocycle PMX inhibitors have no effect on intraerythrocytic parasite maturation but prevent egress and maturation of SUB1. […] Scale bar, 20 μm. (B) Simplified schematic of proteolytic maturation of the egress effector SUB1. Conversion of the precursor form to p54 is through autocatalytic removal[32] of the prodomain region (PD), whereas conversion of p54 to p47 is mediated by PMX.[15],[16],[33] (C) Left, Western blot analysis of P. falciparum 3D7 schizonts allowed to mature in the presence of the indicated macrocycle compounds (20 nM), showing defective SUB1 maturation in parasites treated with the indicated macrocycle compounds. Right, Western blot of the same extracts probed with a monoclonal antibody (mAb) specific to the rhoptry protein RAP1, which is a substrate for cleavage by the related P. falciparum protease PMIX. The compounds had no discernible effect on the maturation of RAP1. The results shown are typical of 3 independent experiments.
as §2

Data set [5] addresses PMIV (Plasmodium falciparum, UniProt Q8IM16). Description: FRET-based PMIV inhibition assay. The class given is biochemical, P. falciparum. As to the method:
(§3) A fluorescence resonance energy transfer (FRET)-based assay was performed to assess the ability of the compounds to inhibit PMIV, CatD, and BACE1. Serial dilutions of test compounds were dispensed in a white 96-well plate. […] The mixture was incubated for 20 min at 37 °C. […] IC50 values were calculated with GraphPad Prism 8.0 using the nonlinear regression, variable slope (four parameters). Compounds were tested in triplicate.

Data set [6] is described as follows: Liver microsomal metabolic stability. The class given is in vitro ADME, mouse. As to conditions: pooled liver microsomes, pH 7.4, mouse liver microsomes, 5 μM; for microsomal CLint at 1 h, 5 μM: read-out: microsomal stability CL(int). The procedure:
Microsomal stability assays are performed as described elsewhere.[41] Test compounds and pooled mouse liver microsomes are incubated in potassium phosphate buffer in the presence of the cofactor NADPH at 37 °C. Reaction mixtures (700 μL) contain a final concentration of 5 μM test compound, 0.05% DMSO, 0.5 mg/mL microsomes, and ∼0.7–0.9 mM NADPH in 100 mM potassium phosphate buffer at pH 7.4. Reactions are terminated by the addition of 100 μL of the reaction mixture to 900 μL of acetonitrile after 0, 5, 15, 30, 45, and 60 min of incubation. Samples were centrifuged, and the resultant supernatant was analyzed by ultra-performance liquid chromatography–tandem mass spectrometry (UPLC-MS/MS). The amount of remaining compound is calculated and compared to the initial amount of test compound (zero time point). Verapamil is used as a positive control, and samples prepared without cofactor NADPH are used as a negative control (0 and 60 min). The in vitro metabolic stability parameters (half-life value (t1/2) and intrinsic clearance value (Clint)) are calculated from the slope of the Ln of concentration remaining vs the time curve.

The target in data set [7] is recombinant P. falciparum PMX (Plasmodium falciparum, UniProt Q8IAS0). Description: Recombinant P. falciparum PMX inhibition assay (fluorogenic substrate Rh2N). The class given is biochemical. The procedure: The fluorescence of this peptide is quenched by the spatial proximity of the DABCYL/EDANS groups in the uncleaved peptide and is increased upon cleavage at the internal F–I bond. […] Control wells contained no inhibitor, and the plate was blanked against the substrate only in DB. […] All experiments were performed in duplicate.

The test system of data set [8] is SUB1 p54 to p47 conversion (PMX activity). Description: Washout assay, SUB1 maturation by Western blot. As to conditions: 20 nM ∼44 h, C2 1 μM for 1 h. The class given is cell-based, P. falciparum. The procedure:
as §1, §2

Data set [9] has as its target cathepsin D (CatD) (Homo sapiens, UniProt P07339). Description: FRET-based CatD inhibition assay (selectivity counter screen). The class given is biochemical. As to the method: as §3
The target of data set [10] is BACE1 (Homo sapiens, UniProt P56817). Description: FRET-based BACE1 inhibition assay (selectivity counter screen). The class given is biochemical. As to the method: as §3
In data set [11] the test system is P. falciparum 3D7 parasites. Description: Microscopy of synchronized P. falciparum cultures treated from ring stage (development and egress). The class given is cell-based. As to conditions: 20 nM.
Method: Asexual blood-stage forms of P. falciparum strains 3D7 and Dd2 were maintained at 37 °C in an atmosphere of 1% O2, 5% CO2, and 94% N2 in human RBCs in RPMI 1640 medium containing AlbuMAX II (Thermo Fisher Scientific) and supplemented with 2 mM L-glutamine. The synchronization of parasite cultures was as described previously.[39] Briefly, this involved isolating mature schizont forms by centrifugation over cushions of 70% (v/v) isotonic Percoll (GE Healthcare, Life Sciences) and then allowing the parasites to undergo rupture in the presence of fresh RBCs for 2 h under gentle shaking conditions (100 rpm). Residual schizonts were then removed through a second Percoll separation, followed by treatment with 5% (w/v) sorbitol to finally obtain a highly synchronized preparation of newly invaded ring-stage parasites.
Growth stage progression and parasite morphology were also monitored by microscopic examination at selected time points using Giemsa-stained thin blood films.
Setting [12] is: recombinant PMX, read-out: PMX, nM (IC50).

Structures are written as SMILES. Read-outs that look alike come from different tables or passages of the source.

Sequence of recombinant P. falciparum PMX (Q8IAS0 222-573): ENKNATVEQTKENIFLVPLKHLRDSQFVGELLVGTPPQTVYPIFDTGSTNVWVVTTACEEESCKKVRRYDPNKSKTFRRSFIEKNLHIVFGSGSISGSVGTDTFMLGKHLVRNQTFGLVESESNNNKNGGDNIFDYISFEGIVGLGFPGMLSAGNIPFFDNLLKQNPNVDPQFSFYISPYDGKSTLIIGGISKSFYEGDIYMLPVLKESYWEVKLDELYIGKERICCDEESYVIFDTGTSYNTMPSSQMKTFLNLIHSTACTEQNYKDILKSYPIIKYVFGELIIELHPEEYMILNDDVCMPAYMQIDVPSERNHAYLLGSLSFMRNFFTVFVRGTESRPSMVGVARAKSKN
Sequence of PMIV (Q8IM16 122-449): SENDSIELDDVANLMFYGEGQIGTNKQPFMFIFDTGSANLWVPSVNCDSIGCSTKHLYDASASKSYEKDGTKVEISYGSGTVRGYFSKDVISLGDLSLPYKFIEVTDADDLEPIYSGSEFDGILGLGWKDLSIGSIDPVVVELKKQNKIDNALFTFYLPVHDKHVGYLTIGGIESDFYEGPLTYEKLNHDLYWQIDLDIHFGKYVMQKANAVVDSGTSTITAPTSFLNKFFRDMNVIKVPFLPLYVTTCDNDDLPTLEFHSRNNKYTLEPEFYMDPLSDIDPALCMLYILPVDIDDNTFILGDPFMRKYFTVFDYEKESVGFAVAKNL
Sequence of BACE1 (P56817 46-501): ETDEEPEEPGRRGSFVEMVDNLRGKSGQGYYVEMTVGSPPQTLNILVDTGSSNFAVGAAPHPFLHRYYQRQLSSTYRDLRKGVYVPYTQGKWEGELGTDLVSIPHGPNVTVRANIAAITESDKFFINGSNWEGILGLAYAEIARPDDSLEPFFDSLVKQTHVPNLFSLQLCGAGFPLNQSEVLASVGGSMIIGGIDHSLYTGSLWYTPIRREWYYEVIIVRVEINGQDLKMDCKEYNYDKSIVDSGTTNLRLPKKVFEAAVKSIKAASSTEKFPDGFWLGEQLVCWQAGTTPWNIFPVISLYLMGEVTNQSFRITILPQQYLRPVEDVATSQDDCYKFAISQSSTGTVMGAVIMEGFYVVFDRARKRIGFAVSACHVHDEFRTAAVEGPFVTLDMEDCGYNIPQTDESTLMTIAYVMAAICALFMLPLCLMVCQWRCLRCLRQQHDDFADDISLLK
Sequence of cathepsin D (CatD) (P07339 65-412): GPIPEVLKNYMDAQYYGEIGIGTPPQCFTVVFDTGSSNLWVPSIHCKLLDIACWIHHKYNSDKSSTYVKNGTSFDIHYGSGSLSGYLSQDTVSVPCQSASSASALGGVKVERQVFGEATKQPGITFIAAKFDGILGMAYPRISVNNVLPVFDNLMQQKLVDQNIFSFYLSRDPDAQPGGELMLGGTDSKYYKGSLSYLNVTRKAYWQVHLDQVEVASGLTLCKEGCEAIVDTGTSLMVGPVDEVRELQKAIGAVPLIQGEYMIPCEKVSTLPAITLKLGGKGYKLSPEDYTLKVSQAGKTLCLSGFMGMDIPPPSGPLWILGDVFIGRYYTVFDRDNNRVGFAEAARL

On to `CCCN1CCCCc2cccc(c2)C[C@@H]([C@H](O)CNC(C)(C)c2cccc(OC)c2)NC(=O)c2cccc(c2)C1=O` [7j, (S)-4-((R)-1-Hydroxy-2-((2-(3-methoxyphenyl)propan-2-yl)amino)ethyl)-11-propyl-3,11-diaza-1,6(1,3)-dibenzenacyclododecaphane-2,12-dione], for which the “new ring formation after washout” value in data set [1] is given as “allowed an efficient generation of new rings”. In data set [2], this molecule showed a fraction unbound at 2 h, 5 µM of 0.0067. Moreover, in data set [3], the “maturation of SUB1 (p54 to p47)” value is reported as “clear defect in maturation of the PMX substrate SUB1”. The “maturation of RAP (PMIX substrate)” value in [4] is “do not affect PMIX activity at these concentrations”. Further, the IC50 in data set [5] (Table 3, read-out: PMIV, nM (as listed in Table 3)) was 74 ± 4 nM; in [5] (read-out: PMIV, nM (IC50)), 74 ± 4 nM; in data set [7] (Table 3, read-out: PMX, nM (as listed in Table 3)), 3.8 ± 0.69 nM; in [7] (setting [12]) it was 3.8 ± 0.69 nM; in [9], 1370 ± 70 nM; in data set [10] it was 3020 ± 150 nM. Besides, the half-life at 1 h, 5 μM in [6] is 14.4 min. Further, the microsomal CLint at 1 h, 5 μM in [6] came out at 96.4 µL/min/mg. The “SUB1 p54 to p47 conversion after washout” value in [8] is recorded as “efficient conversion of the accumulated SUB1 p54 intermediate to the p47 form”.
Turning to `CCCN1CCCCOc2cccc(c2)C[C@@H]([C@H](O)CNC(C)(C)c2cccc(OC)c2)NC(=O)c2cccc(c2)C1=O` [7a, (S)-4-((R)-1-Hydroxy-2-((2-(3-methoxyphenyl)propan-2-yl)amino)ethyl)-12-propyl-7-oxa-3,12-diaza-1,6(1,3)-dibenzenacyclotridecaphane-2,13-dione], the “new ring formation after washout” value in data set [1] is listed as “allowed an efficient generation of new rings”. In [2], this molecule had an unbound share (fraction unbound) at 2 h, 5 µM of 0.029. In [3], the “maturation of SUB1 (p54 to p47)” value was “clear defect in maturation of the PMX substrate SUB1”. Moreover, the “maturation of RAP (PMIX substrate)” value in [4] is “do not affect PMIX activity at these concentrations”. Further, the IC50 in data set [5] (read-out: PMIV, nM (IC50)) was 60 ± 3 nM; in data set [7] (setting [12]), 4.1 ± 0.3 nM; in data set [9], 270 ± 20 nM; in data set [10] it was 380 ± 20 nM. In [6], this molecule returned a half-life at 1 h, 5 μM of 8.67 min. In data set [6], the microsomal CLint at 1 h, 5 μM is 160 µL/min/mg. Further, the “intraerythrocytic development of ring-stage parasites to schizont stage” value in [11] (44 h) is given as “Development of ring-stage parasites to the multinucleated schizont stage occurred similarly in all cultures”. Moreover, the “schizont rupture (egress) and appearance of new rings” value in [11] (44 h and extended incubation) is “schizont rupture and appearance of new rings did not occur”. Moreover, in data set [8], the “SUB1 p54 to p47 conversion after washout” value was “efficient conversion of the accumulated SUB1 p54 intermediate to the p47 form”.

The record behind these values is publication PMC10424242, “Macrocyclic Peptidomimetic Plasmepsin X Inhibitors with Potent In Vitro and In Vivo Antimalarial Activity” (Journal of Medicinal Chemistry, 2023).
